Where a chain is given by its changes, count along the chain named. Calls of active or inactive are those of the source. No cut-off for these calls is given here. Positions of bridges follow the written chain, without caps; N, C: chain ends. Residues, ends and D or L forms follow the SMILES beside them.
How the values were obtained:
[1] = tested on: T1, Melanoma-associated antigen 4 (Homo sapiens), P43358 [I205A]; experiment: Binding affinity to recombinant N-terminal His-tagged MAGEA4-MH domain I205A mutant (unknown origin) expressed in Escherichia coli BL21-(DE3) assessed as increase in thermal stability by SYPRO orange dye based differential scanning fluorimetry; conditions: dose <= 10.0 µM
T1 sequence (whole entry): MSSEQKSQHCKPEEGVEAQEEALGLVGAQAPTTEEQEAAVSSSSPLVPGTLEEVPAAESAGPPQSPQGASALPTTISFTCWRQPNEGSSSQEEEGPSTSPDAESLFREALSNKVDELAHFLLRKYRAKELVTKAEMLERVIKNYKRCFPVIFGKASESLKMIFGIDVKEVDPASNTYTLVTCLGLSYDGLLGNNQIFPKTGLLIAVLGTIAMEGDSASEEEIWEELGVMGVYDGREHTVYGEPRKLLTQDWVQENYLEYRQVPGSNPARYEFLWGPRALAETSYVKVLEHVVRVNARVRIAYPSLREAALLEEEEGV

[2] = tested on: T2, Melanoma-associated antigen 4 (Homo sapiens), P43358 [D115R]; experiment: Binding affinity to recombinant N-terminal His-tagged MAGEA4-MH domain D115R mutant (unknown origin) expressed in Escherichia coli BL21-(DE3) assessed as increase in thermal stability by SYPRO orange dye based differential scanning fluorimetry; conditions: dose <= 10.0 µM
T2 sequence (whole entry): T1 sequence (whole entry) with D115R, A205I

[3] = tested on: T3, Melanoma-associated antigen 4 (Homo sapiens), P43358 [V228A]; experiment: Binding affinity to recombinant N-terminal His-tagged MAGEA4-MH domain V228A mutant (unknown origin) expressed in Escherichia coli BL21-(DE3) assessed as increase in thermal stability by SYPRO orange dye based differential scanning fluorimetry; conditions: dose <= 10.0 µM
T3 sequence (whole entry): T1 sequence (whole entry) with A205I, V228A

NCI-H1299 = experiment: Inhibition of MAGEA4 in human NCI-H1299 cell lysate interaction with HA-tagged RAD18 (unknown origin) at 20 nM incubated for overnight by co-immunoprecipitation pull down assay; format: subcellular
[4] = Inhibition of Eu-W1024 streptavidin-labeled 6 xHis-tagged MAGEA4-MH domain (unknown origin) expressed in Escherichia coli BL21-(DE3)/GST-tagged RAD18 (unknown origin) (267 to 402 residues) interaction using Ulight-anti-GST antibody incubated for 30 to 60 mins by LANCE TR-FRET assay; parameters: species or system Homo sapiens
[5] = tested on: T4, Melanoma-associated antigen 4 (Homo sapiens), P43358 [V294A]; experiment: Binding affinity to recombinant N-terminal His-tagged MAGEA4-MH domain V294A mutant (unknown origin) expressed in Escherichia coli BL21-(DE3) assessed as increase in thermal stability by SYPRO orange dye based differential scanning fluorimetry; conditions: dose <= 10.0 µM
T4 sequence (whole entry): T1 sequence (whole entry) with A205I, V294A

[6] = tested on: T5, Melanoma-associated antigen 4 (Homo sapiens), P43358 [E225A]; experiment: Binding affinity to recombinant N-terminal His-tagged MAGEA4-MH domain E225A mutant (unknown origin) expressed in Escherichia coli BL21-(DE3) assessed as increase in thermal stability by SYPRO orange dye based differential scanning fluorimetry; conditions: dose <= 10.0 µM
T5 sequence (whole entry): T1 sequence (whole entry) with A205I, E225A

[7] = target: T6, Melanoma-associated antigen 4 (Homo sapiens, UniProt P43358); experiment: Binding affinity to recombinant N-terminal His-tagged MAGEA4-MH domain (unknown origin) expressed in Escherichia coli BL21-(DE3) by isothermal titration calorimetry
T6 sequence (P43358 whole entry): T1 sequence (whole entry) with A205I

[8] = target: T6, Melanoma-associated antigen 4; experiment: Binding affinity to MAGEA4 (unknown origin) expressed in Escherichia coli BL21-(DE3) by isothermal titration calorimetry
Homo sapiens = species: Homo sapiens; experiment: Inhibition of Eu-W1024 streptavidin-labeled 6 xHis-tagged MAGEA4-MH domain E225A mutant (unknown origin) expressed in Escherichia coli BL21-(DE3) interaction with Ulight-labeled GST-tagged RAD18 (unknown origin) (267 to 402 residues) at 1 uM by LANCE TR-FRET assay

In the case of `CC[C@H](C)[C@@H]1NC(=O)[C@H](Cc2ccc(O)cc2)NC(=O)CSC[C@@H](C(N)=O)NC(=O)[C@H](CC(N)=O)NC(=O)[C@H](Cc2cnc[nH]2)NC(=O)[C@H](Cc2ccc(O)cc2)NC(=O)[C@H](CC(=O)O)NC(=O)[C@H](Cc2ccc(O)cc2)NC(=O)[C@H](CC(C)C)NC(=O)[C@H](CCCNC(=N)N)NC1=O` ({CH2CO}-YIRLYDYHNC-NH2; thioether N-10), the Tm [1] is reported as < 3.5 °C, the Tm [2] is reported as < 3.5 °C and the Tm [3] is reported as < 3.5 °C. The inhibition (NCI-H1299) was “Active”, the IC50 [4] was 3.65 nM and the Tm [5] was < 3.5 °C. The Tm [6] was < 3.5 °C, the Kd [7] was 9.7 nM and the Kd [8] was 36.8 nM. For the same molecule, the inhibition (Homo sapiens) was “Active”.
